{"source": "patent US12365651B2", "about": "“Use of pirfenidone and derivatives for modulation of B lymphocyte activity and organ protection from acute tissue damage” (Washington University, priority 2017, dated 2025)", "key": {"[1]": {"test": "Plasma pharmacokinetics after IV or PO administration", "type": "in vivo, SD Rat", "description": "Pirfenidone and Pegyonde-6 were administered at equimolar concentrations to rats IV or per os (PO) and serum concentrations measured at different time points to measure pharmacokinetic parameters. The drugs were solubilized in 5% Alcohol+20% PEG 300 in saline."}, "[2]": {"test": "Plasma pharmacokinetics after IV or PO administration", "type": "in vivo", "settings": "SD Rat, 96 mg/kg"}, "[3]": {"test_system": "Peritoneal derived inflammatory cells", "test": "In vitro immunomodulatory effect of tested PEG compounds (CD86 on CD19+ cells, LPS)", "type": "cell-based, mouse", "settings": "potency in molarity; toxicity by visual inspection and DAPI staining (FIG. 11D)", "description": "Peritoneal derived inflammatory cells were collected on day for post intraperitoneal injection of Thyoglicollate. Cells were cultured for 24 h in baseline condition (control), in the presence of LPS 100 ng/ml (LPS) or in the presence of LPS 100 ng/ml and various concentrations of different forms of Pegylated Pirfenidone (named C2 and C3 in FIG. 11A and C4 to C6 in FIG. 11B)). After the 24 h in culture cells were collected and analyzed via flow cytometry to assess the expression of CD86 on CD19+ cells (B lymphocytes). […] FIG. 11C reports the molecular weights of the tested forms of PEGylated Pirfenidone and the molecular weight (MW) ration between the tested compound and Pirfenidone)."}, "[4]": {"settings": "SD Rat, IV 96 mg/kg, individual rats 4-6, 96 mg/kg"}, "[5]": {"settings": "SD Rat, PO 96 mg/kg, individual rats 10-12, 96 mg/kg"}}, "note": "Values joined by “and” are separate entries in the source; they are usually repeats but may differ in a detail not shown here. Equal values may be shown once."}
{"smiles": "COCCOCCOCCOCCOCCOCc1ccc(-n2cc(C)ccc2=O)cc1", "note": "[PEG-Pirfenidone]", "values": [{"measurement": "AUC0-t, Mean", "setting": "[1]; SD Rat, IV 96 mg/kg", "value": 34197, "unit": "ng·h/mL"}, {"measurement": "AUC0-∞, Mean", "setting": "[1]; SD Rat, IV 96 mg/kg", "value": 34229, "unit": "ng·h/mL"}, {"measurement": "AUMC0-t, Mean", "setting": "[1]; SD Rat, IV 96 mg/kg", "value": 18176, "unit": "h*h*ng/mL"}, {"measurement": "AUMC0—∞, Mean", "setting": "[1]; SD Rat, IV 96 mg/kg", "value": 18540, "unit": "h*h*ng/mL"}, {"measurement": "CL(/F), Mean", "setting": "[1]; SD Rat, IV 96 mg/kg", "value": 48.72, "unit": "mL/min/kg"}, {"measurement": "Cmax, Mean", "setting": "[1]; SD Rat, IV 96 mg/kg", "value": 65733, "unit": "ng/mL"}, {"measurement": "MRTINF, Mean", "setting": "[1]; SD Rat, IV 96 mg/kg", "value": 33.8, "unit": "min"}, {"measurement": "T1/2, Mean", "setting": "[1]; SD Rat, IV 96 mg/kg", "value": 79.8, "unit": "min"}, {"measurement": "Tmax, Mean", "setting": "[1]; SD Rat, IV 96 mg/kg", "value": 4.98, "unit": "min"}, {"measurement": "Vss (/F), Mean", "setting": "[1]; SD Rat, IV 96 mg/kg", "value": 1.7, "unit": "L/kg"}, {"measurement": "Plasma concentrations of PEG-Pirfenidone, Mean", "setting": "[1]; SD Rat, IV 96 mg/kg, 0.083 h", "value": 65733, "unit": "ng/mL"}, {"measurement": "Plasma concentrations of PEG-Pirfenidone, Mean", "setting": "[1]; SD Rat, IV 96 mg/kg, 0.25 h", "value": 41336, "unit": "ng/mL"}, {"measurement": "Plasma concentrations of PEG-Pirfenidone", "setting": "[1]; SD Rat, IV 96 mg/kg, 0.25 h, individual rats 4-6, 96 mg/kg", "value": "27605 ng/mL and 35059 ng/mL and 61343 ng/mL"}, {"measurement": "Plasma concentrations of PEG-Pirfenidone, Mean", "setting": "[1]; SD Rat, IV 96 mg/kg, 0.5 h", "value": 17149, "unit": "ng/mL"}, {"measurement": "Plasma concentrations of PEG-Pirfenidone, Mean", "setting": "[1]; SD Rat, IV 96 mg/kg, 1 h", "value": 6090, "unit": "ng/mL"}, {"measurement": "Plasma concentrations of PEG-Pirfenidone", "setting": "[1]; SD Rat, IV 96 mg/kg, 1 h, individual rats 4-6, 96 mg/kg", "value": "5974 ng/mL and 6543 ng/mL and 5755 ng/mL"}, {"measurement": "Plasma concentrations of PEG-Pirfenidone, Mean", "setting": "[1]; SD Rat, IV 96 mg/kg, 2 h", "value": 1533, "unit": "ng/mL"}, {"measurement": "Plasma concentrations of PEG-Pirfenidone", "setting": "[1]; SD Rat, IV 96 mg/kg, 2 h, individual rats 4-6, 96 mg/kg", "value": "1786 ng/mL and 2091 ng/mL and 721 ng/mL"}, {"measurement": "Plasma concentrations of PEG-Pirfenidone, Mean", "setting": "[1]; SD Rat, IV 96 mg/kg, 4 h", "value": 183, "unit": "ng/mL"}, {"measurement": "Plasma concentrations of PEG-Pirfenidone", "setting": "[1]; SD Rat, IV 96 mg/kg, 4 h, individual rats 4-6, 96 mg/kg", "value": "216 ng/mL and 156 ng/mL and 178 ng/mL"}, {"measurement": "Plasma concentrations of PEG-Pirfenidone, Mean", "setting": "[1]; SD Rat, IV 96 mg/kg, 8 h", "value": 20.3, "unit": "ng/mL"}, {"measurement": "Plasma concentrations of PEG-Pirfenidone", "setting": "[1]; SD Rat, IV 96 mg/kg, 8 h, individual rats 4-6, 96 mg/kg", "value": "12.9 ng/mL and 11.5 ng/mL and 36.3 ng/mL"}, {"measurement": "Plasma concentrations of PEG-Pirfenidone, Mean", "setting": "[1]; SD Rat, IV 96 mg/kg, 24 h", "value": 2.97, "unit": "ng/mL"}, {"measurement": "Plasma concentrations of PEG-Pirfenidone", "setting": "[1]; SD Rat, IV 96 mg/kg, 24 h, individual rats 4-6, 96 mg/kg", "value": "BLOQ (Below lower limit of quantification (1 ng/mL)) (2×) and 2.97 ng/ml"}, {"measurement": "Tmax", "setting": "[1]; SD Rat, IV 96 mg/kg, individual rats 4-6", "value": 4.98, "unit": "min"}, {"measurement": "AUC0-t", "setting": "[1]; [4]", "value": "26338 ng·h/mL and 32960 ng·h/mL and 43292 ng·h/mL"}, {"measurement": "AUC0-∞", "setting": "[1]; [4]", "value": "26353 ng·h/mL and 32968 ng·h/mL and 43367 ng·h/mL"}, {"measurement": "AUMC0-t", "setting": "[1]; [4]", "value": "16980 h*h*ng/mL and 20439 h*h*ng/mL and 17108 h*h*ng/mL"}, {"measurement": "AUMC0—∞", "setting": "[1]; [4]", "value": "17118 h*h*ng/mL and 20640 h*h*ng/mL and 17863 h*h*ng/mL"}, {"measurement": "CL(/F)", "setting": "[1]; [4]", "value": "60.72 mL/min/kg and 48.53 mL/min/kg and 36.9 mL/min/kg"}, {"measurement": "Cmax", "setting": "[1]; [4]", "value": "44227 ng/mL and 56484 ng/mL and 96487 ng/mL"}, {"measurement": "MRTINF", "setting": "[1]; [4]", "value": "39 min and 37.6 min and 24.7 min"}, {"measurement": "T1/2", "setting": "[1]; [4]", "value": "48.2 min and 106 min and 85.8 min"}, {"measurement": "Vss (/F)", "setting": "[1]; [4]", "value": "2.366 L/kg and 1.823 L/kg and 0.912 L/kg"}, {"measurement": "AUC0-t, Mean", "setting": "[1]; SD Rat, PO 96 mg/kg", "value": 16811, "unit": "ng·h/mL"}, {"measurement": "AUC0-∞, Mean", "setting": "[1]; SD Rat, PO 96 mg/kg", "value": 16838, "unit": "ng·h/mL"}, {"measurement": "AUMC0-t, Mean", "setting": "[1]; SD Rat, PO 96 mg/kg", "value": 10264, "unit": "h*h*ng/mL"}, {"measurement": "AUMC0—∞, Mean", "setting": "[1]; SD Rat, PO 96 mg/kg", "value": 10527, "unit": "h*h*ng/mL"}, {"measurement": "Cmax, Mean", "setting": "[1]; SD Rat, PO 96 mg/kg", "value": 23584, "unit": "ng/mL"}, {"measurement": "MRTINF, Mean", "setting": "[1]; SD Rat, PO 96 mg/kg", "value": 37.6, "unit": "min"}, {"measurement": "T1/2, Mean", "setting": "[1]; SD Rat, PO 96 mg/kg", "value": 70.8, "unit": "min"}, {"measurement": "Tmax, Mean", "setting": "[1]; SD Rat, PO 96 mg/kg", "value": 15, "unit": "min"}, {"measurement": "F %", "setting": "[1]; SD Rat, PO 96 mg/kg vs IV 96 mg/kg", "value": 49.16, "unit": "%"}, {"measurement": "Plasma concentrations of PEG-Pirfenidone, Mean", "setting": "[1]; SD Rat, PO 96 mg/kg, 0.25 h", "value": 23584, "unit": "ng/mL"}, {"measurement": "Plasma concentrations of PEG-Pirfenidone", "setting": "[1]; SD Rat, PO 96 mg/kg, 0.25 h, individual rats 10-12, 96 mg/kg", "value": "8298 ng/mL and 40817 ng/mL and 21638 ng/mL"}, {"measurement": "Plasma concentrations of PEG-Pirfenidone, Mean", "setting": "[1]; SD Rat, PO 96 mg/kg, 0.5 h", "value": 19224, "unit": "ng/mL"}, {"measurement": "Plasma concentrations of PEG-Pirfenidone", "setting": "[1]; SD Rat, PO 96 mg/kg, 0.5 h, individual rats 10-12, 96 mg/kg", "value": "3977 ng/mL and 35217 ng/mL and 18477 ng/mL"}, {"measurement": "Plasma concentrations of PEG-Pirfenidone, Mean", "setting": "[1]; SD Rat, PO 96 mg/kg, 1 h", "value": 3748, "unit": "ng/mL"}, {"measurement": "Plasma concentrations of PEG-Pirfenidone", "setting": "[1]; SD Rat, PO 96 mg/kg, 1 h, individual rats 10-12, 96 mg/kg", "value": "1157 ng/mL and 7033 ng/mL and 3053 ng/mL"}, {"measurement": "Plasma concentrations of PEG-Pirfenidone, Mean", "setting": "[1]; SD Rat, PO 96 mg/kg, 2 h", "value": 440, "unit": "ng/mL"}, {"measurement": "Plasma concentrations of PEG-Pirfenidone, Mean", "setting": "[1]; SD Rat, PO 96 mg/kg, 4 h", "value": 69, "unit": "ng/mL"}, {"measurement": "Plasma concentrations of PEG-Pirfenidone", "setting": "[1]; SD Rat, PO 96 mg/kg, 4 h, individual rats 10-12, 96 mg/kg", "value": "28.4 ng/mL and 129 ng/mL and 48.8 ng/mL"}, {"measurement": "Plasma concentrations of PEG-Pirfenidone, Mean", "setting": "[1]; SD Rat, PO 96 mg/kg, 8 h", "value": 14, "unit": "ng/mL"}, {"measurement": "Plasma concentrations of PEG-Pirfenidone", "setting": "[1]; SD Rat, PO 96 mg/kg, 8 h, individual rats 10-12, 96 mg/kg", "value": "3.09 ng/mL and 33.4 ng/mL and 6.16 ng/mL"}, {"measurement": "Plasma concentrations of PEG-Pirfenidone", "setting": "[1]; SD Rat, PO 96 mg/kg, 24 h, individual rats 10-12", "value": "BLOQ (Below lower limit of quantification (1 ng/mL))"}, {"measurement": "Tmax", "setting": "[1]; SD Rat, PO 96 mg/kg, individual rats 10-12", "value": 15, "unit": "min"}, {"measurement": "AUC0-t", "setting": "[1]; [5]", "value": "4853 ng·h/mL and 30468 ng·h/mL and 15112 ng·h/mL"}, {"measurement": "AUC0-∞", "setting": "[1]; [5]", "value": "4858 ng·h/mL and 30533 ng·h/mL and 15123 ng·h/mL"}, {"measurement": "AUMC0-t", "setting": "[1]; [5]", "value": "3178 h*h*ng/mL and 19172 h*h*ng/mL and 8441 h*h*ng/mL"}, {"measurement": "AUMC0—∞", "setting": "[1]; [5]", "value": "3221 h*h*ng/mL and 19815 h*h*ng/mL and 8544 h*h*ng/mL"}, {"measurement": "Cmax", "setting": "[1]; [5]", "value": "8298 ng/mL and 40817 ng/mL and 21638 ng/mL"}, {"measurement": "MRTINF", "setting": "[1]; [5]", "value": "39.8 min and 38.9 min and 33.9 min"}, {"measurement": "T1/2", "setting": "[1]; [5]", "value": "60.6 min and 80.4 min and 71.4 min"}, {"measurement": "half-life compared with Pirfenidone", "setting": "[1]; rats, equimolar, after both IV and PO administration", "value": "longer half-life than Pirfenidone"}, {"measurement": "Plasma concentrations of PEG-Pirfenidone", "setting": "[2]; IV 96 mg/kg, 0.083 h, individual rats 4-6", "value": "44227 ng/mL and 56484 ng/mL and 96487 ng/mL"}, {"measurement": "Plasma concentrations of PEG-Pirfenidone", "setting": "[2]; IV 96 mg/kg, 0.5 h, individual rats 4-6", "value": "13073 ng/mL and 18584 ng/mL and 19790 ng/mL"}, {"measurement": "Plasma concentrations of PEG-Pirfenidone", "setting": "[2]; PO 96 mg/kg, 2 h, individual rats 10-12", "value": "219 ng/mL and 885 ng/mL and 217 ng/mL"}, {"measurement": "relative potency to Pirfenidone and in vitro toxicity", "setting": "[3]", "value": "superior to the other tested variants"}]}
